Reference: PMC5513037, “Examining the influence of specificity ligands and ATP-competitive ligands on the overall effectiveness of bivalent kinase inhibitors” (Proteome Science, 2017)

Key:
Experiment in all cases: KAM-matrix competition in K562 lysate;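 for 0.001 uM KAM: median log10 fold change of treatment over DMSO control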;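 for 0.01 uM KAM: median log10 fold change of treatment over DMSO control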;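 for 0.1 uM KAM: median log10 fold change of treatment over DMSO control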;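 for 1 uM KAM: median log10 fold change of treatment over DMSO control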;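 for 10 uM KAM: median log10 fold change of treatment over DMSO control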
Assay type in all cases: binding
CDC42BPA = target: T1, CDC42BPA (Homo sapiens, UniProt Q5VT25);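 for 0.001 uM KAM: median log10 fold change of treatment over DMSO control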;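 for 0.01 uM KAM: median log10 fold change of treatment over DMSO control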;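 for 0.1 uM KAM: median log10 fold change of treatment over DMSO control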;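 for 1 uM KAM: median log10 fold change of treatment over DMSO control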;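 for 10 uM KAM: median log10 fold change of treatment over DMSO control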
T1 construct: endogenous in cells; host or cells: K562
Description: (§1) Supplement 12953_2017_125_MOESM1_ESM.zip/MS_Supp Info.xlsx, sheet "KAM" | column: 10 uM KAM; 1 uM KAM; 0.1 uM KAM; 0.01 uM KAM; 0.001 uM KAM; RB50

EEF2K = target: T2, EEF2K (Homo sapiens, UniProt O00418);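 for 0.001 uM KAM: median log10 fold change of treatment over DMSO control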;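 for 0.01 uM KAM: median log10 fold change of treatment over DMSO control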;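 for 0.1 uM KAM: median log10 fold change of treatment over DMSO control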;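 for 1 uM KAM: median log10 fold change of treatment over DMSO control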;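 for 10 uM KAM: median log10 fold change of treatment over DMSO control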
T2 construct: endogenous in cells; host or cells: K562 lysate
T2 sequence (O00418 1-725): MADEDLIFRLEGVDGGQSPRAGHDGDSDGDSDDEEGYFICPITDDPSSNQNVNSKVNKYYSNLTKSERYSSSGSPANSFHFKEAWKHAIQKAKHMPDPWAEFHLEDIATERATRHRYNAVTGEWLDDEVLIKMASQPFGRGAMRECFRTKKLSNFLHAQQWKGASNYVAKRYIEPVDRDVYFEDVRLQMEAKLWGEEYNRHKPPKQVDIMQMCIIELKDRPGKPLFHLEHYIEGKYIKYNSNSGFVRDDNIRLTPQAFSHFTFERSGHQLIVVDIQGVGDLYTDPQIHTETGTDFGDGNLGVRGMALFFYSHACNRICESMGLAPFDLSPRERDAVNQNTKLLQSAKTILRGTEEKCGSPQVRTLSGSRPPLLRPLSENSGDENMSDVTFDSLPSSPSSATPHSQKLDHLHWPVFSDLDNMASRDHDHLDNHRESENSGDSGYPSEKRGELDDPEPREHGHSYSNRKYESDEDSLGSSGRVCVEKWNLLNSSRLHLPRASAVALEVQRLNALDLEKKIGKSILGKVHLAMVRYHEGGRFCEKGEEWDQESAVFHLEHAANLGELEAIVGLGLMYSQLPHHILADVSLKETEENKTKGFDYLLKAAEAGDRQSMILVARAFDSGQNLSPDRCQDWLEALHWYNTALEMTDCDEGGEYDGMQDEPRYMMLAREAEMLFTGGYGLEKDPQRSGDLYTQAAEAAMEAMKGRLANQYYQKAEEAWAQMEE
Description: as §1

MAPK8 = target: T3, MAPK8 (Homo sapiens, UniProt P45983)
T3 construct: endogenous in cells; host or cells: K562
Description: as §1

MAPKAPK5 = target: T4, MAPKAPK5 (Homo sapiens, UniProt Q8IW41)
T4 construct: endogenous in cells; host or cells: K562
T4 sequence (Q8IW41 1-473): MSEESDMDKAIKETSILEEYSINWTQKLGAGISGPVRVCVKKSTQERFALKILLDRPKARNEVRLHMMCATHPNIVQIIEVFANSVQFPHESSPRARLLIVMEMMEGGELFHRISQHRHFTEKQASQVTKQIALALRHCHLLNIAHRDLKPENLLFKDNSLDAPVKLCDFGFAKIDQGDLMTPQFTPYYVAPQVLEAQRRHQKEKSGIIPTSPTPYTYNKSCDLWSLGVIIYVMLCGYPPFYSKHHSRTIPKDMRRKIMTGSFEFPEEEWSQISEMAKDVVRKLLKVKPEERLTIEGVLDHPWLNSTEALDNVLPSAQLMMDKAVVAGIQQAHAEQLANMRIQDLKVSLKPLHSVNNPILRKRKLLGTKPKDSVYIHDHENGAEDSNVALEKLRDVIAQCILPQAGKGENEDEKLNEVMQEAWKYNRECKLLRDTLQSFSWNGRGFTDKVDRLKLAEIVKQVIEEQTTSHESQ
Description: as §1

TAOK1 = target: T5, TAOK1 (Homo sapiens, UniProt Q7L7X3)
T5 construct: endogenous in cells; host or cells: K562 cell lysate
T5 sequence (Q7L7X3 1-1001): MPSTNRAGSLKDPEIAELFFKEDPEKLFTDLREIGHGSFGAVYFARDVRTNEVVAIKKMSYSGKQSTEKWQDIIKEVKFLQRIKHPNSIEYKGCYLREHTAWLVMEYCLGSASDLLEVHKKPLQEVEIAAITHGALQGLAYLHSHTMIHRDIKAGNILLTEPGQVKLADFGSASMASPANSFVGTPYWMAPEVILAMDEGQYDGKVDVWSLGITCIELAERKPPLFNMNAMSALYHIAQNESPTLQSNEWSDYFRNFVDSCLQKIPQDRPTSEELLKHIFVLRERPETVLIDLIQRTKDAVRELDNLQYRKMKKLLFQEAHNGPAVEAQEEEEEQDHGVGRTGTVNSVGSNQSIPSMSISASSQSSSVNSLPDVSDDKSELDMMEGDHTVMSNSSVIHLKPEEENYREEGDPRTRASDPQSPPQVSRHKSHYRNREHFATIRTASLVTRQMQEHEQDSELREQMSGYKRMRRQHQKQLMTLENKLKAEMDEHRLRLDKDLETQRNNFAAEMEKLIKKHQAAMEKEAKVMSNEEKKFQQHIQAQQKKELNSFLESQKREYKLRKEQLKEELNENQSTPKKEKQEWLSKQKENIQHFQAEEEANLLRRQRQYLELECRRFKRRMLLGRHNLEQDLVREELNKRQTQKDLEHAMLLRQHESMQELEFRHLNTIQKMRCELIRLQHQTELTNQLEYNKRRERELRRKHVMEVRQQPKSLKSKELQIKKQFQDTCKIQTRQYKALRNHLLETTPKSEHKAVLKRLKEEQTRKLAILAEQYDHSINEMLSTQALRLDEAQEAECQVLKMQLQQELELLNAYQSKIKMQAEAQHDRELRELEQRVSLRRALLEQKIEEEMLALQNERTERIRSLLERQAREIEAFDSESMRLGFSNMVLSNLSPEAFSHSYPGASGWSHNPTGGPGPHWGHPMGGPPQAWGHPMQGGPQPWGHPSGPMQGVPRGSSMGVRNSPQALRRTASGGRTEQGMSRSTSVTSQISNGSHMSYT
Description: as §1

[1] = KAM 0.001-10 uM, read-out: RB50 (the source's name)
[2] = read-out: RB50 (the source's name)

T3 sequence (P45983 whole entry): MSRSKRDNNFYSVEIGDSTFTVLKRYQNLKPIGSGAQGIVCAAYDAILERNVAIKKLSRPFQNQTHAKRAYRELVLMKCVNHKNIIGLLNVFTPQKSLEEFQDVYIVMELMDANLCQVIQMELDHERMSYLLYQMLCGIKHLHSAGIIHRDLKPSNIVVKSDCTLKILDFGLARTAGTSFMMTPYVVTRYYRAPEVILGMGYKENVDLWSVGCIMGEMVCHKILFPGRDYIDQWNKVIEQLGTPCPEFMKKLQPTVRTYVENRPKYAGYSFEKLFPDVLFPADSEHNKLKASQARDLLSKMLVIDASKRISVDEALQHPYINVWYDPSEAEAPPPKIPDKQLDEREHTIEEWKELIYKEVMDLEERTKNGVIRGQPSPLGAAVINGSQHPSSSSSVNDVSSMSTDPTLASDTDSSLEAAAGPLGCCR
T1 sequence (Q5VT25 whole entry): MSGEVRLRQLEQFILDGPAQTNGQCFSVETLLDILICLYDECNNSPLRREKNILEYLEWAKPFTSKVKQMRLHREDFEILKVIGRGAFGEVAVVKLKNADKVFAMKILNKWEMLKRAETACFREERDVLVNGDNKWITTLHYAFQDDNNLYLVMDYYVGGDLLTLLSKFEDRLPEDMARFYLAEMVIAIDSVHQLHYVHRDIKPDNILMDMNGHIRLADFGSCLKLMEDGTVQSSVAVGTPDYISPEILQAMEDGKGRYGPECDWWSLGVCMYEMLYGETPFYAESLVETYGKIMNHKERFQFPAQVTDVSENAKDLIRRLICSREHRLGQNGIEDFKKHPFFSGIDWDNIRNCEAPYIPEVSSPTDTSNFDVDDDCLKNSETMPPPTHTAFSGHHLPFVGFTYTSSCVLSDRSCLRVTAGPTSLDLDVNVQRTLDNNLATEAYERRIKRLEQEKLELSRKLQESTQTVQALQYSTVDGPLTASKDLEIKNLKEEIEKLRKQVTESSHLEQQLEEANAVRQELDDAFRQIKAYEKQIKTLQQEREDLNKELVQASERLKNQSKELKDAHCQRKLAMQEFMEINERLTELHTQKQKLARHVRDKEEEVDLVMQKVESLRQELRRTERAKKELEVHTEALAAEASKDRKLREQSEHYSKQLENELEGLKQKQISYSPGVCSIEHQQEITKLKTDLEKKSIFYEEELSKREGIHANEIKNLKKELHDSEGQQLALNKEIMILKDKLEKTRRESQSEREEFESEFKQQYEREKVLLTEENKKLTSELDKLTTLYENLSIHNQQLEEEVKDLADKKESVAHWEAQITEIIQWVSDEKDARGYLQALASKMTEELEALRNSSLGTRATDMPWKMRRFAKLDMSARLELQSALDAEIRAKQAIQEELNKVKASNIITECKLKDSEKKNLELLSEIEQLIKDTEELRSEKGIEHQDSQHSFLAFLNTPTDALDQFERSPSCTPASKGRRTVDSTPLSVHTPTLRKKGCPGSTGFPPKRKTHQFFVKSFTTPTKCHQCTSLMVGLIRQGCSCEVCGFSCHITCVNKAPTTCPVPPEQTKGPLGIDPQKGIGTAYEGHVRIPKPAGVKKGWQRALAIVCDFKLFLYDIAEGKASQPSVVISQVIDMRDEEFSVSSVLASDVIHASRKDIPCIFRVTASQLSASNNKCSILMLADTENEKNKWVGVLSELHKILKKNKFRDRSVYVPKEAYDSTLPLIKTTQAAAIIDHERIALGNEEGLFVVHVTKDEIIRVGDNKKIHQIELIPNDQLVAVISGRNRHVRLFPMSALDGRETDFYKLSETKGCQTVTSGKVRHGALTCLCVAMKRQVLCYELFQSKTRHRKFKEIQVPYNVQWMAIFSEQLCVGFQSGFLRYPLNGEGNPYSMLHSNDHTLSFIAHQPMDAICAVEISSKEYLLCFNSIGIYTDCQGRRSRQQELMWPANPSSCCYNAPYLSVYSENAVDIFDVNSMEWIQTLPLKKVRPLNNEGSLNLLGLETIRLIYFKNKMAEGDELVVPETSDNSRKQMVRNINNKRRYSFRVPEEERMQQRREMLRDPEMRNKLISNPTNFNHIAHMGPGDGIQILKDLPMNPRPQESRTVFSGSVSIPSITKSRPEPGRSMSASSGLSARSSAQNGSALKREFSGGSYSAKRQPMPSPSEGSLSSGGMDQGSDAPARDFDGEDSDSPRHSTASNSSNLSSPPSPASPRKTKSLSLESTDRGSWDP

N#CCc1ccc(Nc2nc(NCCCN)cc(Nc3cc(C4CC4)[nH]n3)n2)cc1 [KAM]
IC50 (CDC42BPA; [1]): > 10 µM
0.001 uM KAM (CDC42BPA; relative to 0 uM KAM = 0): -0.02138
0.01 uM KAM (CDC42BPA; relative to 0 uM KAM = 0): -0.0113
0.1 uM KAM (CDC42BPA; relative to 0 uM KAM = 0): -0.01108
1 uM KAM (CDC42BPA; relative to 0 uM KAM = 0): 0.04656
10 uM KAM (CDC42BPA; relative to 0 uM KAM = 0): -0.06135
IC50 (EEF2K; [1]): > 10 µM
0.001 uM KAM (EEF2K; relative to 0 uM KAM = 0): 0.04185
0.01 uM KAM (EEF2K; relative to 0 uM KAM = 0): 0.02355
0.1 uM KAM (EEF2K; relative to 0 uM KAM = 0): 0.1074
1 uM KAM (EEF2K; relative to 0 uM KAM = 0): 0.1036
10 uM KAM (EEF2K; relative to 0 uM KAM = 0): 0.09999
median Log10 fold change (MAPK8; 0.001 uM KAM): -0.03388
median Log10 fold change (MAPK8; 0.01 uM KAM): -0.03516
median Log10 fold change (MAPK8; 0.1 uM KAM): -0.1302
median Log10 fold change (MAPK8; 1 uM KAM): -0.2377
median Log10 fold change (MAPK8; 10 uM KAM): -0.3812
IC50 (MAPK8; [2]): 2.35 µM
median Log10 fold change (MAPKAPK5; 0.001 uM KAM): 0.03286
median Log10 fold change (MAPKAPK5; 0.01 uM KAM): -0.006541
median Log10 fold change (MAPKAPK5; 0.1 uM KAM): -0.1605
median Log10 fold change (MAPKAPK5; 1 uM KAM): -0.3604
median Log10 fold change (MAPKAPK5; 10 uM KAM): -0.4852
IC50 (MAPKAPK5; [2]): 0.729 µM
median Log10 fold change (TAOK1; 0.001 uM KAM): 0.00525
median Log10 fold change (TAOK1; 0.01 uM KAM): 0.00511
median Log10 fold change (TAOK1; 0.1 uM KAM): -0.09468
median Log10 fold change (TAOK1; 1 uM KAM): -0.2373
median Log10 fold change (TAOK1; 10 uM KAM): -0.3152
IC50 (TAOK1; [2]): 4.15 µM
